# Laboratory results published in the supplement of paper PMC10307832.
# Legend:
# Test in all cases: relative viability (nuclei count vs DMSO), 5 days (fraction); higher = more cells survive
# [1] = compound: CN(C)C(=N)NC(=N)N [Metformin] + CS(=O)(=O)CCNCc1ccc(-c2ccc3ncnc(Nc4ccc(OCc5cccc(F)c5)c(Cl)c4)c3c2)o1 [Lapatinib] (partner 2 µM)
# Procedure, shortened: (§1)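 Dosing by pin tool came one day after lung cancer cell lines were seeded in 1536-well plates, using either one drug or a fixed anchor-drug dose plus five library-drug doses (not always all listed) in √10 steps. After 5 days, nuclei were counted on 4× images. Relative viability is treated-well nuclei count divided by vehicle-well nuclei count, and values are medians of duplicate plates.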
# [2] = compound: CN(C)C(=N)NC(=N)N [Metformin] + Cc1nc(Nc2ncc(C(=O)Nc3c(C)cccc3Cl)s2)cc(N2CCN(CCO)CC2)n1 [Dasatinib] (partner 0.075 µM)
# Procedure, shortened: as §1
# [3] = compound: N#CC1(c2ccc(NC(=O)c3cccnc3NCc3ccncc3)cc2)CCCC1 [Apatinib] + C[C@@H](Oc1cc(-c2cnn(C3CCNCC3)c2)cnc1N)c1c(Cl)ccc(F)c1Cl [Crizotinib] (partner 1 µM)
# Procedure, shortened: as §1
# [4] = compound: N#CC1(c2ccc(NC(=O)c3cccnc3NCc3ccncc3)cc2)CCCC1 [Apatinib] + O=C(c1cc(Cc2n[nH]c(=O)c3ccccc23)ccc1F)N1CCN(C(=O)C2CC2)CC1 [Olaparib] (partner 8 µM)
# Procedure, shortened: as §1
Cell Line,relative viability ([1]; first compound 10 µM),relative viability ([1]; first compound 31.62 µM),relative viability ([1]; first compound 100 µM),relative viability ([1]; first compound 316.23 µM),relative viability ([1]; first compound 1000 µM),relative viability ([2]; first compound 10 µM),relative viability ([2]; first compound 31.62 µM),relative viability ([2]; first compound 100 µM),relative viability ([2]; first compound 316.23 µM),relative viability ([2]; first compound 1000 µM),relative viability ([3]; first compound 0.08 µM),relative viability ([3]; first compound 0.253 µM),relative viability ([3]; first compound 0.8 µM),relative viability ([3]; first compound 2.53 µM),relative viability ([3]; first compound 8 µM),relative viability ([4]; first compound 0.08 µM),relative viability ([4]; first compound 0.253 µM),relative viability ([4]; first compound 0.8 µM),relative viability ([4]; first compound 2.53 µM),relative viability ([4]; first compound 8 µM)
LXF-289,0.812,0.879,0.879,0.843,0.887,0.186,0.188,0.188,0.137,0.236,0.797,0.817,0.778,0.749,0.742,1.03,1.18,0.993,0.956,0.904
NCI-H23,0.998,1.14,1.05,0.762,1.11,0.759,0.876,0.833,0.499,0.802,0.49,0.578,0.421,0.49,0.57,0.305,0.322,0.301,0.316,0.238
NCI-H322M,0.589,0.598,0.688,0.614,0.585,0.326,0.318,0.31,0.305,0.245,0.917,0.925,0.946,0.825,0.776,0.791,0.759,0.686,0.772,0.805
NCI-H358,0.409,0.671,0.616,0.58,0.602,0.143,0.127,0.118,0.212,0.14,0.682,0.586,0.525,0.54,0.43,0.681,0.559,0.553,0.569,0.453
NCI-H460,–,1.15,0.9,0.849,1.02,0.402,0.546,0.353,0.43,0.457,1.04,0.907,0.727,0.848,0.857,0.407,0.444,0.344,0.323,0.237
NCI-H520,0.849,1.07,0.948,0.768,0.892,0.24,0.195,0.265,0.195,0.217,0.912,0.701,0.737,0.614,0.45,0.375,0.32,0.401,0.28,0.314
NCI-H596,1.18,1.22,1.07,1.06,1.2,0.622,0.67,0.757,0.696,0.655,0.923,1.12,1.07,0.861,0.969,0.822,0.73,0.722,0.65,0.634
NCI-H647,1.04,1.14,0.933,1.04,1.1,0.226,0.231,0.567,0.221,0.212,1.18,1.23,1,0.846,0.737,0.65,0.794,0.508,0.418,0.305
NCI-H650,1.22,1.04,0.887,0.799,0.942,0.466,0.438,0.339,0.502,0.332,0.664,0.843,0.676,0.562,0.43,0.35,0.458,0.439,0.365,0.334
NCI-H661,0.58,0.783,0.811,0.688,0.57,–,0.895,0.995,0.828,0.893,1.02,1.03,1.02,0.934,0.916,0.719,0.726,0.724,0.687,0.641
NCI-H727,0.863,0.917,0.615,0.728,0.884,0.399,0.451,0.478,–,0.49,0.756,0.693,0.719,0.679,0.583,0.812,–,0.725,0.622,0.718
NCI-H838,1.13,0.987,0.918,0.951,0.888,0.271,0.254,0.356,0.241,0.348,0.892,0.936,0.77,0.76,0.775,0.853,0.831,0.762,0.69,0.696
NCI-H1355,0.884,0.955,0.946,0.982,1.06,0.718,0.638,0.681,0.638,0.778,1.04,1.03,1.03,0.943,0.815,0.787,0.798,0.745,0.647,0.616
NCI-H1437,0.868,0.887,0.619,0.712,0.808,0.602,0.48,0.359,0.41,0.415,1.01,1,0.92,0.726,0.632,0.61,0.663,0.57,0.574,0.496
NCI-H1650,0.699,0.844,0.949,0.707,0.648,0.443,0.456,0.366,0.301,0.369,1.13,1.03,0.9,0.92,0.842,0.827,0.787,0.799,0.761,0.696
NCI-H1651,0.877,0.81,0.822,0.749,0.865,0.757,0.349,0.346,0.361,0.464,0.916,0.86,0.84,0.8,0.733,0.192,0.206,0.186,0.17,0.172
NCI-H1666,0.57,0.557,0.601,0.535,0.67,0.752,0.957,0.79,0.798,0.779,1.15,1.28,0.985,1.14,0.718,0.803,0.8,0.705,0.743,0.765
NCI-H1734,1.03,1.04,1.09,0.991,1.14,0.413,0.472,0.463,0.47,0.498,0.67,0.812,0.76,0.596,0.579,0.675,0.622,0.61,0.56,0.565
NCI-H1755,0.763,0.956,1.02,0.929,0.99,0.422,0.332,0.433,0.36,0.417,0.858,0.885,0.911,0.803,0.769,0.846,0.892,0.835,0.876,0.753
NCI-H1792,–,0.87,1.03,0.795,0.864,–,1.05,0.982,0.754,0.756,0.97,0.988,0.949,0.96,0.832,0.416,0.588,0.341,0.224,0.216
NCI-H1915,–,1.07,0.973,0.976,1,–,0.34,0.346,0.335,0.355,0.945,0.864,0.855,0.819,0.78,0.262,0.257,0.266,0.264,0.239
NCI-H1944,0.686,0.961,0.931,0.751,0.886,0.22,0.227,0.252,0.254,0.246,1.03,1.17,0.998,0.983,0.911,0.407,0.378,0.37,0.346,0.319
NCI-H1975,0.98,1.27,0.935,1.05,1.06,0.558,0.417,0.553,0.418,0.402,1,0.967,0.78,0.814,0.78,0.795,0.77,0.727,0.723,0.634
NCI-H1993,0.761,0.823,0.814,0.741,0.804,0.764,0.59,0.665,0.639,0.703,0.943,0.868,0.782,0.801,0.68,0.991,1.05,1.05,0.984,1.04
NCI-H2009,0.574,0.98,1.01,0.889,0.991,0.503,0.522,0.483,0.401,0.467,1.05,1.1,1.02,0.814,0.698,0.722,0.651,0.64,0.431,0.443
NCI-H2023,–,0.975,0.74,–,0.764,0.599,0.618,0.703,0.493,0.662,0.717,0.737,0.69,0.699,0.643,0.429,0.508,0.462,0.35,0.395
NCI-H2085,0.716,0.805,0.801,0.725,0.868,0.327,0.336,0.333,0.306,0.358,0.89,0.794,0.797,0.777,0.623,0.763,0.748,0.766,0.68,0.771
